Reference: article PMC1456331 (Nucleic Acids Research, 2006)

Columns and labels:
Phoenix Eco cells [1] = system: Phoenix Eco cells
Phoenix Eco cells [2] = test: Cellular uptake of fluorescein-labeled oligomers; format: cell-based
Phoenix Eco cells [3] = test: Live-cell confocal microscopy, intracellular localization; format: cell-based
[4] = estimated; 5 µM oligomer, 37°C, DMEM/10% FBS; denaturing gel, densitometry

Molecule	cell viability (Phoenix Eco cells [1])	time of maximum uptake (Phoenix Eco cells [2]; in the presence of LFA)	fluorescence in treated cells (in words) (Phoenix Eco cells [2]; in the presence of Lipofectamine-2000 (LFA), oligomer or its duplex with CT-ODN, after 4 h already)	intracellular distribution (in words) (Phoenix Eco cells [3])	half-life [4]
CCN(CC)CCCC(C)Nc1ccnc2cc(Cl)ccc12 (centres unmarked) [chloroquine]	80–85%	–	–	–	–
pHypNA TCACTCAACACTCAC-Flu: fluorescein-labeled trans-L pHypNA oligomer, sequence TCACTCAACACTCAC-Flu (pHypNA backbone; fluorescein)	–	20 to 24 h	high level of fluorescence	evenly distributed in the cytoplasm with preferential staining of the nucleus	~72 h
